Results on three compounds are retold here after ChEMBL document CHEMBL1139916, “6-hydroxy to 6'''-amino tethered ring-to-ring macrocyclic aminoglycosides as probes for APH(3')-IIIa kinase” (2007).

The nature of assay [1]: Ratio of Kcat/Km of bacterial APH(3')-3a kinase.
The nature of assay [2]: Activity of bacterial APH(3')-3a kinase.
The test system of the next assay is Escherichia coli. Description: Growth inhibition of Escherichia coli. The assay is classed as functional.
The test system of the next assay is Staphylococcus aureus. Kind of assay: Growth inhibition of Staphylococcus aureus. The format is functional.
Assay [3] is described as follows: Ratio of Kcat/Km of bacterial APH(3')-3a kinase-mediated low affinity phosphorylation.
Assay [4] in a line: Ratio of Kcat/Km of bacterial APH(3')-3a kinase-mediated high affinity phosphorylation.
Assay [5] can be described thus: Activity of bacterial APH(3')-3a kinase assessed low affinity phosphorylation.
The nature of assay [6]: Activity of bacterial APH(3')-3a kinase assessed high affinity phosphorylation.

Turning to `N[C@H]1[C@H]2O[C@H]3[C@@H](O)[C@H](O[C@@H]4[C@@H](OCCCCC(=O)NC[C@H](O2)[C@@H](O)[C@@H]1O)[C@H](N)C[C@H](N)[C@H]4O[C@H]1O[C@H](CO)[C@@H](O)[C@H](O)[C@H]1N)O[C@@H]3CO`, the kcat/Km in assay [1] was 3.35 10^3/M/s. In assay [2], the Michaelis-Menten constant (Km) was 21.8 µM, the Vmax was 0.07 µM/s and the turnover number (kcat) is 0.073 s⁻¹. Also, the minimal inhibitory concentration (MIC) against Escherichia coli is more than 10 µg/mL. Moreover, the minimum inhibitory concentration (MIC) against Staphylococcus aureus was more than 40 µg/mL.

For the compound `N[C@H]1[C@H]2O[C@H]3[C@@H](O)[C@H](O[C@@H]4[C@@H](OCCCCCNC[C@H](O2)[C@@H](O)[C@@H]1O)[C@H](N)C[C@H](N)[C@H]4O[C@H]1O[C@H](CO)[C@@H](O)[C@H](O)[C@H]1N)O[C@@H]3CO`, the minimal inhibitory concentration (MIC) against Escherichia coli is more than 10 µg/mL; against Staphylococcus aureus, more than 40 µg/mL.

On to `NC[C@@H]1O[C@H](O[C@H]2[C@@H](O)[C@H](O[C@@H]3[C@@H](O)[C@H](N)C[C@H](N)[C@H]3O[C@H]3O[C@H](CO)[C@@H](O)[C@H](O)[C@H]3N)O[C@@H]2CO)[C@H](N)[C@@H](O)[C@@H]1O`, for which the specificity constant (kcat/Km) in assay [3] is 5.95 10^3/M/s; in assay [4], 1.12 10^4/M/s. In addition, the Michaelis constant (Km) in assay [5] worked out at 51.1 µM; in assay [6], 16.9 µM. In addition, the Vmax in assay [5] was determined as 0.292 µM/s; in assay [6] it was 0.183 µM/s. The turnover number (kcat) in assay [5] amounted to 0.304 s⁻¹; in assay [6], 0.19 s⁻¹.

In general, kcat/Km refers to the second-order rate constant that governs catalysis at low substrate concentration. One may read the Km as the substrate concentration at which the rate is half of its maximum. One may read the Vmax as the rate approached at saturating substrate. By kcat is commonly meant the maximal rate divided by the concentration of active sites. As a reminder, the MIC is the smallest concentration in the dilution series that meets the test's criterion for growth inhibition. A lower MIC goes with a more susceptible organism.
